Structures can show the parent of a compound that is named as a salt.
What was measured:
[1] = Nephelometry (aqueous solubility); assay type: physicochemical; conditions: DPBS with 1% DMSO, aqueous buffer, kinetic from dmso stock, DPBS pH 7.0-7.3, 1% DMSO, 25° C.
Text: Well A1 of the plate contained 100% DMSO.

[2] = Aqueous stability assay (HPLC, pseudo first-order half-life); assay type: physicochemical; conditions: DPBS pH 7.0-7.3, 1 mg/mL, room temperature; for half-life at 1 mg/mL / half-life: buffer, read-out: PBS t1/2 (converted)
Procedure: Aqueous stability experiments were performed on an Agilent 1100 HPLC equipped with an Agilent 1200 autosampler. HPLC grade solvents were exclusively used during analysis, with acetonitrile being purchased from Sigma Aldrich, and water and formic acid provided by Fisher Scientific. […]
[…] All mixtures were then sonicated for 5 min or stirred until complete dissolution was achieved. Any precipitate observed in sample solutions was filtered with a PTFE syringe filter prior to analysis. Immediately after sample preparation, injection by the HPLC autosampler was performed, which was recorded as the initial time point (t=0 min). Samples were then kept in the autosampler at room temperature and injected at designated intervals without additional filtration or sample modification. Next, the area of the parent peak in each chromatogram was determined by automated integration in the Agilent ChemStation software. Pseudo first-order half-lives were then ascertained by calculating the percent of the parent compound remaining after each time point. Plots of time (x-axis) vs. the natural logarithm of percent parent remaining (y-axis) were subsequently constructed to determine the slope. Finally, the aqueous stability was evaluated using the following equation:
The HPLC conditions were as follows: injection volume, 1 μL; column temperature: 40° C.; detector: 254 nm; stationary phase: Zorbax Eclipse XDB-C18 (4.6×150 mm, 5 μm); flow rate: 1 mL/min; mobile phase: 80-95% acetonitrile in H2O (0.1% formic acid).

[3] = Plasma stability assay (LC-MS/MS); assay type: in vitro ADME; conditions: human plasma, 37° C., 3 μM
Procedure: Procaine and procainamide were purchased from Sigma Aldrich. HPLC-grade acetonitrile, water, methanol, and formic acid were purchased from Fisher Scientific. Human plasma (Cat. No. […]2N) was obtained from BIOIVT, and PBS (1×Dulbecco's, pH 7.4) from Thermo Fisher Scientific.
Test compounds were dissolved in DMSO to make a stock solution of 10 mM and then diluted to 500 μM in buffer or 70% methanol. Human plasma was thawed at ambient temperature and aliquoted (994.0 μL) to a 1.5 mL Eppendorf tube in duplicates (vials A and B) for each compound. The plasma was incubated at 37° C. for 10 min in an incubator shaker at 150 RPM; the reaction was initiated by addition of the test compound (6.0 μL), followed by vortex mixing. The total reaction volume was 1000 μL, the final organic solvent concentrations were […] (when 70% methanol was used for dilution) and 0.03% DMSO, and the final concentration of the test compound was 3 μM. The spiked plasma samples were incubated at 37° C. for 4 h. The reactions were terminated at time point 0, 15, 30, 60, 120, 180, and 240 min by taking a 100 μL aliquot from the test incubation mixture and immediately quenching it by adding it into ice-cold acetonitrile or methanol (150 μL) containing 2 μM internal standard (ISTD), followed by vortex mixing. The ISTD was d5-7-ethoxy coumarin. The samples were then centrifuged at 15000 RPM for 25 min at 4° C., and the supernatant was transferred to an LC-MS vial for analysis by LC-MS/MS. Each time point was tested in duplicates followed by in-between blank washes to avoid carryover and to equilibrate the column.
Procaine (poor plasma stability) and procainamide (good plasma stability) were used as controls at the same concentration as that of the test compound. These controls were run in parallel to test the assay's competency. Matrix blank was prepared by adding acetonitrile or methanol containing ISTD to plasma samples without any of the test or control compounds. Also, an additional control sample was made to simply monitor compound degradation in PBS buffer.
Below is a summary of samples prepared for a given test compound in a typical plasma stability assay: • Test compound (TC): 994 μL human plasma+6.0 μL TC (Vial A) 994 μL human plasma+6.0 μL TC (Vial B) • Control: 596 μL human plasma+3.6 μL (procaine+procainamide) • Blank matrix: 500 μL PBS buffer+100 μL human plasma • Additional control: 142 μL PBS buffer+0.9 μL TC • Quenching mixture: 150 μL acetonitrile or methanol with ISTD (2 μM) • Final volume: 250 μL (100 μL from the incubation mixture+150 μL quenching mixture; final ISTD conc.: 1.2 μM)
LC-MS/MS analysis was performed using Agilent 1260 Infinity II HPLC, coupled with an Agilent G6460 triple quadrupole mass spectrometer (Agilent Technologies, USA). The data were acquired and processed using the Agilent 6460 Quantitative Analysis data processing software.
Reverse-phase HPLC separation for each compound was achieved on an Agilent InfinityLab Poroshell 120 C18 column (2.1×50 mm, 2.7 μm) with a mobile phase composed of methanol/water with 0.1% formic acid or acetonitrile/water with 0.1% formic acid at a flow rate of 0.5 mL/min. Each method was developed in the presence of the ISTD. The column temperature was maintained at 40° C. The detection was operated using the Agilent Jet-Stream electrospray positive ionization under the multiple reaction monitoring mode. The mass spec conditions were as follows: dwell time 100 ms; gas flow 10 L/min; nebulizer pressure 45 psi; delta EMV 200 V.
Plots of time (x-axis) vs. the natural logarithm of percent parent remaining (y-axis) were subsequently constructed to determine the slope. Finally, the plasma stability was evaluated using the following equation: […]

[4] = read-out: Plasma t1/2 (converted)

C/C(=N\OC(=O)NC[C@@H]1CCCCN1)[C@H]1CCC2[C@@H]3CCC4=CC(=O)CC[C@]4(C)[C@H]3CC[C@@]21C (stereo partly drawn) [32i, (8S,9S,10R,13S,17S)-10,13-dimethyl-17-((E)-1-((((((S)-piperidin-2-yl)methyl)carbamoyl)oxy)imino)ethyl)-1,2,6,7,8,9,10,11,12,13,14,15,16,17-tetradecahydro-3H-cyclopenta[a]phenanthren-3-one hydrochloride]
solubility at 90 min [1]: > 750 µM
half-life at 1 mg/mL ([2]; d (days)): 684 h

CNCCN(C(=O)O/N=C(\C)[C@H]1CC[C@H]2[C@@H]3CCC4=CC(=O)CC[C@]4(C)[C@H]3CC[C@]12C)C1CCC1.O=C(O)C(F)(F)F [53c, (E)-5-cyclobutyl-9-((8S,9S,10R,13S,14S,17S)-10,13-dimethyl-3-oxo-2,3,6,7,8,9,10,11,12,13,14,15,16,17-tetradecahydro-1H-cyclopenta[a]phenanthren-17-yl)-7-oxa-2,5,8-triazadec-8-en-6-one 2,2,2-trifluoroacetate]
solubility at 90 min [1]: > 750 µM
PBS t1/2 [2]: 11.79 ± 0.51 h

CNCCN(CCN(C)C)C(=O)O/N=C(\C)[C@H]1CC[C@H]2[C@@H]3CCC4=CC(=O)CC[C@]4(C)[C@H]3CC[C@]12C.O=C(O)C(F)(F)F [53f, (E)-9-((8S,9S,10R,13S,14S,17S)-10,13-dimethyl-3-oxo-2,3,6,7,8,9,10,11,12,13,14,15,16,17-tetradecahydro-1H-cyclopenta[a]phenanthren-17-yl)-2-methyl-5-(2-(methylamino)ethyl)-7-oxa-2,5,8-triazadec-8-en-6-one 2,2,2-trifluoroacetate]
solubility at 90 min [1]: > 500 µM
PBS t1/2 [2]: 2.17 ± 0.02 h

C/C(=N\OC(=O)OCCN(C)C)[C@H]1CC[C@H]2[C@@H]3CCC4=CC(=O)CC[C@]4(C)[C@H]3CC[C@]12C.Cl [compound 35, (E)-9-((8S,9S,10R,13S,14S,17S)-10,13-dimethyl-3-oxo-2,3,6,7,8,9,10,11,12,13,14,15,16,17-tetradecahydro-1H-cyclopenta[a]phenanthren-17-yl)-2-methyl-5,7-dioxa-2,8-diazadec-8-en-6-one hydrochloride]
half-life [2]: 3.5 ± 0.6 h
Plasma t1/2 [3]: 7.2 h

CNCCCN(C)C(=O)O/N=C(\C)[C@H]1CC[C@H]2[C@@H]3CCC4=CC(=O)CC[C@]4(C)[C@H]3CC[C@]12C.Cl [compound 39, (E)-10-((8S,9S,10R,13S,14S,17S)-10,13-dimethyl-3-oxo-2,3,6,7,8,9,10,11,12,13,14,15,16,17-tetradecahydro-1H-cyclopenta[a]phenanthren-17-yl)-6-methyl-8-oxa-2,6,9-triazaundec-9-en-7-one hydrochloride]
half-life ([2]; d (days)): > 720 h
Plasma t1/2 [3]: >4 h

C/C(=N\OC(=O)N1CCC[C@H]1CN)[C@H]1CCC2[C@@H]3CCC4=CC(=O)CC[C@]4(C)[C@H]3CC[C@@]21C (stereo partly drawn) [32h, ((2S)-1-(((((E)-1-((8S,9S,10R,13S,17S)-10,13-dimethyl-3-oxo-2,3,6,7,8,9,10,11,12,13,14,15,16,17-tetradecahydro-1H-cyclopenta[a]phenanthren-17-yl)ethylidene)amino)oxy)carbonyl)pyrrolidin-2-yl) methanaminium chloride]
half-life at 1 mg/mL ([2]; d (days)): > 720 h
half-life at 3 µM [3, 4]: > 4 h

CNC[C@@H]1CCCN1C(=O)O/N=C(\C)[C@H]1CCC2[C@@H]3CCC4=CC(=O)CC[C@]4(C)[C@H]3CC[C@@]21C.Cl (stereo partly drawn) [32k, 1-((2S)-1-(((((E)-1-((8S,9S,10R,13S,17S)-10,13-dimethyl-3-oxo-2,3,6,7,8,9,10,11,12,13,14,15,16,17-tetradecahydro-1H-cyclopenta[a]phenanthren-17-yl)ethylidene)amino)oxy)carbonyl)pyrrolidin-2-yl)-N-methylmethanaminium chloride]
half-life ([2]; d (days)): > 720 h
half-life [3, 4]: > 4 h

— US20250034200A1, “Prodrugs of Neurosteroid Analogs and Uses Thereof” (priority 2021, published 2025)
